Measurements as given in patent publication US20160166608A1, “METHODS OF TREATING CANCER WITH HIGH POTENCY LIPID-BASED PLATINUM COMPOUND FORMULATIONS ADMINISTERED INTRAPERITONEALLY” (Insmed Incorporated, priority 2005, published 2016).

Tested on: L1210 cells
Test: Survival of DBA/2 mice with L1210 cells after a single ip bolus (Example 15)
Format: in vivo, mouse
Details: 6 mg/kg single ip bolus on day 5; L1210, DBA/2 mice
Description: DPPC (3.0 g) and cholesterol (1.2 g) were co-dissolved in 20 mL of ethanol. • 2.
The mice were given equivalent amounts of cisplatin containing therapeutics based on the amount of lipid instead of the amount of cisplatin.
Female DBA/2 mice (Charles Rivers) were used. Thirty (30) mice were injected with 2×10^6 L1210 cells ip on Day 0. On day 1, the mice were weighed and randomized into 3 groups of 10 mice. […] Survival was monitored. Mice were weighed daily after day 10. Mice that lost 20% or greater of their starting weight were euthanized by CO2 inhalation. The date of their death was recorded on data sheets. Median survival was calculated by Prism GraphPad.

SMILES: N.N.[Cl][Pt][Cl] [cisplatin, cis-diamine-dichloroplatinum (II)]
- days of median survival: 19.5 days
